This is an account of results in ChEMBL document CHEMBL1125671, “Synthesis and antiviral activity of enantiomeric forms of cyclobutyl nucleoside analogues” (1991).

Type in all cases: functional
One assay relates to Human alphaherpesvirus 1. Kind of assay: compound was tested for antiherpes activity against HSV-1(Schooler) in tissue culture by plaque reduction assay. The settings on record: read-out: ID50 (the source's name). (In general: In a plaque reduction assay, fewer plaques than in the control indicate reduced infectivity or spread.)
A further assay concerns Murid betaherpesvirus 1. Kind of assay: compound was tested for antiherpes activity against MCMV(Smith) in tissue culture by plaque reduction assay. To be noted: read-out: ID50 (the source's name).
Another assay relates to Human betaherpesvirus 5. The experiment in a line: compound was tested for antiherpes activity against HCMV(AD 169) in tissue culture by plaque reduction assay. To be noted: read-out: ID50 (the source's name).
The test system of another assay is Human alphaherpesvirus 3. The experiment in a line: compound was tested for antiherpes activity against VZV(Ellen) in tissue culture by plaque reduction assay. The settings on record: read-out: ID50 (the source's name).
The subject of a further assay is Human alphaherpesvirus 2. The experiment in a line: compound was tested for antiherpes activity against HSV-2(186) in tissue culture by plaque reduction assay. To be noted: read-out: ID50 (the source's name).
For assay [1], the system named is Mus musculus. The experiment in a line: Mean day of death for total no. of dead mouse at 12.5 mg/kg/day dose.
Assay [2] has as its system Mus musculus. Kind of assay: oral efficacy in a mouse cytomegalovirus infection at 100 mg/kg/day dose; Value expressed as survivors/total tested = 10/10.
Assay [3] relates to Mus musculus. The experiment in a line: oral efficacy in a mouse cytomegalovirus infection at 25 mg/kg/day dose; Value expressed as survivors/total tested = 3/10.
The subject of assay [4] is Mus musculus. The experiment in a line: Mean day of death for total no. of dead mouse at 6.3 mg/kg/day dose.
Assay [5] has as its system Mus musculus. The experiment in a line: Subcutaneous efficacy in a mouse cytomegalovirus infection at 6.3 mg/kg/day dose; Value expressed as survivors/total tested = 4/10.
In assay [6] the test system is Mus musculus. The experiment in a line: Subcutaneous efficacy in a mouse cytomegalovirus infection at 100 mg/kg/day dose; Value expressed as survivors/total tested = 10/10.
Assay [7] relates to Mus musculus. Kind of assay: Subcutaneous efficacy in a mouse cytomegalovirus infection at 12.5 mg/kg/day dose; Value expressed as survivors/total tested = 4/10.
Assay [8] has as its system Mus musculus. Kind of assay: Mean day of death for total no. of dead mouse at 12.5 mg/kg/day dosep<0.05.
In assay [9] the test system is Mus musculus. Kind of assay: oral efficacy in a mouse cytomegalovirus infection at 12.5 mg/kg/day dose; Value expressed as survivors/total tested = 1/10.
The subject of assay [10] is Mus musculus. The experiment in a line: Subcutaneous efficacy in a mouse cytomegalovirus infection at 50 mg/kg/day dose; Value expressed as survivors/total tested = 10/10.
The test system of assay [11] is Mus musculus. The experiment in a line: Subcutaneous efficacy in a mouse cytomegalovirus infection at 25 mg/kg/day dose; Value expressed as survivors/total tested = 10/10.
The subject of assay [12] is Mus musculus. The experiment in a line: Mean day of death for total no. of dead mouse at 50 mg/kg/day dose.
In assay [13] the test system is Mus musculus. Kind of assay: Mean day of death for total no. of dead mouse at 25 mg/kg/day dose.
The subject of assay [14] is Mus musculus. Kind of assay: oral efficacy in a mouse cytomegalovirus infection at 50 mg/kg/day dose; Value expressed as survivors/total tested = 6/10.
Assay [15] concerns Mus musculus. Kind of assay: Subcutaneous efficacy in a mouse cytomegalovirus infection at 12.5 mg/kg/day dose; Value expressed as survivors/total tested = 5/10.
Assay [16] relates to Mus musculus. The experiment in a line: subcutaneous efficacy of compound in a lethal MCMV infection on mouse. To be noted: sc, read-out: PD50.
Assay [17] concerns Mus musculus. Kind of assay: Subcutaneous efficacy in a mouse cytomegalovirus infection at 50 mg/kg/day; Value expressed as survivors/total tested = 9/10.
The test system of assay [18] is Mus musculus. Kind of assay: Subcutaneous efficacy in a mouse cytomegalovirus infection at 25 mg/kg/day dose; Value expressed as survivors/total tested = 9/10.
Assay [19] concerns Mus musculus. The experiment in a line: Subcutaneous efficacy in a mouse cytomegalovirus infection at 12.5 mg/kg/day dose; Value expressed as survivors/total tested = 7/10.
In assay [20] the test system is Mus musculus. Kind of assay: oral efficacy in a mouse cytomegalovirus infection at 25 mg/kg/day dose; Value expressed as survivors/total tested = 1/10.
Assay [21] deals with Mus musculus. Kind of assay: oral efficacy in a mouse cytomegalovirus infection at 50 mg/kg/day dose; Value expressed as survivors/total tested = 5/10.
The test system of assay [22] is Mus musculus. Kind of assay: Mean day of death for total no. of dead mouse at 25 mg/kg/day dosep<0.05.

Each structure is given as a SMILES string. pIC50: −log10 of the molar value. Bounds are passed on as bounds.

For `Nc1ncnc2c1ncn2C1CC(CO)C1CO` (stereo unspecified), the pIC50 is 5.10 in the assay with Human alphaherpesvirus 1; 5.70 in the assay on Murid betaherpesvirus 1; 6.10 in the assay on Human betaherpesvirus 5; 5.70 in the assay with Human alphaherpesvirus 3; 5.10 with Human alphaherpesvirus 2.

In the case of `Nc1ncnc2c1ncn2C1C[C@H](CO)C1CO` (stereo partly specified), the pIC50 in the assay on Human alphaherpesvirus 1, in the assay on Human betaherpesvirus 5, in the assay on Human alphaherpesvirus 3 and in the assay on Human alphaherpesvirus 2 was < 3.40 each time.

For the compound `Nc1ncnc2c1ncn2C1C[C@@H](CO)[C@@H]1CO` (stereo partly specified), the “Mean day of death for total dead” value was found to be 3.9 with Mus musculus [1]; 4.4 in the assay on Mus musculus [4]; 8.8 in the assay with Mus musculus [8]; 6.3 with Mus musculus [12]; 3.6 in the assay with Mus musculus [13]. For the same compound, the Survivors alive/total in the assay on Mus musculus [2] was determined as 10; with Mus musculus [3] it was 3; in the assay with Mus musculus [5] it was 4; in the assay on Mus musculus [6] it was 10; with Mus musculus [7] it was 4; in the assay with Mus musculus [9], 1. Besides, the Survivors alive/total was determined as 10 in the assay with Mus musculus [10], 10 in the assay with Mus musculus [11] and 6 in the assay on Mus musculus [14]. Besides, the pIC50 in the assay with Human alphaherpesvirus 1 is 5.70; in the assay on Murid betaherpesvirus 1, 6.10; with Human betaherpesvirus 5, > 6.40; in the assay on Human alphaherpesvirus 3, 5.70; with Human alphaherpesvirus 2, 5.70.

Consider `Nc1nc(O)c2ncn(C3C[C@@H](CO)[C@@H]3CO)c2n1` (stereo partly specified), for which the “Mean day of death for total dead” value is 5.4 in the assay with Mus musculus [1], 6 in the assay on Mus musculus [12] and 4 in the assay with Mus musculus [13]. Besides, the Survivors alive/total with Mus musculus [15] is 5; in the assay with Mus musculus [17], 9; in the assay on Mus musculus [18] it was 9; in the assay with Mus musculus [6], 10. Further, the ED50 with Mus musculus [16] came to 10 mg/kg/day. Further, the pIC50 with Human alphaherpesvirus 1 is 7.70; with Murid betaherpesvirus 1 it was 6.70; in the assay on Human betaherpesvirus 5, 6.10; in the assay with Human alphaherpesvirus 3, 7.70; in the assay on Human alphaherpesvirus 2, 7.70.

With `Nc1nc(O)c2ncn(C3CC(CO)C3CO)c2n1` (stereo unspecified), the pIC50 with Human alphaherpesvirus 1 is 7.10; in the assay on Murid betaherpesvirus 1, 5.70; with Human betaherpesvirus 5, 5.40; with Human alphaherpesvirus 3, 6.70; in the assay on Human alphaherpesvirus 2, 7.40.

Regarding `Nc1nc(O)c2ncn([C@H]3CC(CO)[C@@H]3CO)c2n1` (single isomer, unassigned), the pIC50 with Human alphaherpesvirus 1, in the assay with Human betaherpesvirus 5, in the assay with Human alphaherpesvirus 3 and in the assay with Human alphaherpesvirus 2 was < 3.42 throughout.

With `Nc1nc2c(ncn2COC(CO)CO)c(=O)[nH]1` [GANCICLOVIR], the Survivors alive/total in the assay on Mus musculus [19] is 7; in the assay on Mus musculus [20], 1; in the assay on Mus musculus [21] it was 5; in the assay with Mus musculus [6], 10; with Mus musculus [9], 1; with Mus musculus [10], 10. In the assay with Mus musculus [11], this compound registered a Survivors alive/total of 10. Also, the “Mean day of death for total dead” value with Mus musculus [1] is reported as 3.6; with Mus musculus [22], 4.8; with Mus musculus [8], 5.7; in the assay with Mus musculus [12] it was 4.4. For the same compound, the pIC50 with Human alphaherpesvirus 1 is 7.40; in the assay on Murid betaherpesvirus 1, 5.40; in the assay on Human betaherpesvirus 5, 5.70; in the assay on Human alphaherpesvirus 3, 5.70; in the assay with Human alphaherpesvirus 2 it was 7.40.
